The record followed here is US7709478B2, “Acylated 6,7,8,9-tetrahydro-5H-benzocycloheptenyl amines and their use as pharmaceutical agents” (sanofi-aventis Deutschland GmbH, priority 2001, dated 2010).

For this assay, the target named is eNOS promoter. Description: Activation of eNOS transcription (eNOS promoter-luciferase reporter gene assay). In kind it is cell-based, human. As to conditions: 18 h incubation; for EC50: EC50 of transcription induction ratio vs compound concentration, determined graphically, human endothelial cell line stably transfected with eNOS promoter-luciferase construct; for TIR(max) / maximal fold induction: maximum transcription induction ratio (luciferase activity with compound / solvent alone), human endothelial cell line with eNOS promoter-luciferase construct; for maximal fold induction: read-out: TIR(max). On the procedure: Measurement of Activation of eNOS Transcription
Activation of eNOS transcription was measured as described in detail in Li et al. “Activation of protein kinase C alpha and/or epsilon enhances transcription of the human endothelial nitric oxide synthase gene”, Mol. Pharmacol. 1998; 53: 630-637.
Briefly, a 3.5 kB long fragment 5′ of the starting codon of the eNOS gene was cloned, sequenced and cloned in firefly luciferase expression plasmids to monitor activation of the eNOS promoter by reporter gene activity. A human endothelial cell line stable transfected and expressing this promoter-reporter construct was used for compound testing. Cells were incubated for 18 h with compounds.
All compounds were dissolved in sterile DMSO. A final concentration of 0.5% DMSO in complete medium was allowed. Induction of reporter gene expression in these cells was measured using a standard luciferase assay system (Promega, Cat. No E150) according to the manufacturer's instructions. Luciferase induction in cells incubated with compounds were compared to those incubated with solvent alone. The ratio of both activities (transcription induction ratio, TIR) was plotted as a function of compound concentration. Typically, TIR values started at low concentrations at a ratio of 1, indicating no compound effect, and extended up to a maximum TIR value TIR(max) which indicates the increase of the eNOS transcription. EC50 values of transcription induction ratios as a function of compound concentration were determined graphically.

Take `O=C(NC1CCCc2ccccc2C1)c1ccc(N2CCCC2)nc1` (stereo not drawn) [Compound 82, 6-PYRROLIDIN-1-YL-N-(6,7,8,9-TETRARYDRO-5H-BENZOCYCLOHEPTEN-6-YL)-NICOTINAMIDE]: the EC50 worked out at 283 nM and the “TIR(max)” value is on record as 3.2.
In the case of `O=C(NC1CCCc2ccccc2C1)c1cn2ccccc2n1` (stereo not drawn) [Compound 85, IMIDAZO[1,2-A]PYRIDINE-2-CARBOXYLIC ACID (6,7,8,9-TETRAHYDRO-5H-BENZOCYCLOHEPTEN-6-YL)-AMIDE], the EC50 is 15000 nM and the maximal fold induction came out at 3.
Regarding `Cc1cncc(C(=O)NC2CCCc3ccccc3C2)c1` (stereo not drawn) [Compound 91, 5-METHYL-N-(6,7,8,9-TETRAHYDRO-5H-BENZOCYCLOHEPTEN-6-YL)-NICOTINAMIDE], the EC50 amounted to 2300 nM and the maximal fold induction stood at 2.9.
For `Cc1cc(C(=O)NC2CCCc3ccccc3C2)c(C)n1-c1ccccc1` (stereo not drawn) [Compound 96, 2,5-DIMETHYL-1-PHENYL-1H-PYRROLE-3-CARBOXYLIC ACID (6,7,8,9-TETRAHYDRO-5H-BENZOCYCLOHEPTEN-6-YL)-AMIDE], in that order: 20 nM and 3.
As for `CS(=O)(=O)Nc1cccc(C(=O)NC2CCCc3ccccc3C2)c1` (stereo not drawn) [Compound 97, 3-METHANESULFONYLAMINO-N-(6,7,8,9-TETRAHYDRO-5H-BENZOCYCLOHEPTEN-6-YL)-BENZAMIDE], the EC50 came to 1000 nM and the maximal fold induction worked out at 2.5.
As for `CS(=O)(=O)Nc1cc(C(=O)NC2CCCc3ccccc3C2)ccc1Cl` (stereo not drawn) [Compound 98, 4-CHLORO-3-METHANESULFONYLAMIINO-N-(6,7,8,9-TETRAHYDRO-5H-BENZOCYCLOHEPTEN-6-YL)-BENZAMIDE], the EC50 worked out at 574 nM and the “TIR(max)” value stood at 2.6.
Take `Cc1c(NS(C)(=O)=O)cccc1C(=O)NC1CCCc2ccccc2C1` (stereo not drawn) [Compound 99, 3-METHANESULFONYLAMINO-2-METHYL-N-(6,7,8,9-TETRAHYDRO-5H-BENZOCYCLOHEPTEN-6-YL)-BENZAMIDE]: the EC50 is 2800 nM and the maximal fold induction came to 2.5.
Consider `O=C(NC1CCCc2ccccc2C1)c1ccc(N2CCOCC2)nc1` (stereo not drawn) [Compound 101, 6-MORPHOLIN-4-YL-N-(6,7,8,9-TETRAHYDRO-5H-BENZOCYCLOHEPTEN-6-YL)-NICOTINAMIDE], for which the EC50 worked out at 6000 nM and the maximal fold induction was 3.1.
For `COc1ccc(C(=O)NC2CCCc3ccccc3C2)cn1` (stereo not drawn) [Compound 102, 6-METHOXY-N-(6,7,8,9-TETRAHYDRO-5H-BENZOCYCLOHEPTEN-6-YL)-NICOTINAMIDE], in that order: 83 nM and 2.9.
Consider `O=C(NC1CCCc2ccccc2C1)c1cccc(N2CCCCC2)c1` (stereo not drawn) [Compound 106, 3-PIPERIDIN-1-YL-N-(6,7,8,9-TETRAHYDRO-5H-BENZOCYCLOHEPTEN-6-YL)-BENZAMIDE], for which the EC50 was determined as 4800 nM and the maximal fold induction amounted to 2.5.
Take `O=C(NC1CCCc2ccccc2C1)c1cccc(N2CCOCC2)c1` (stereo not drawn) [Compound 108, 3-MORPHOLIN-4-YL-N-(6,7,8,9-TETRAHYDRO-5H-BENZOCYCLOHEPTEN-6-YL)-BENZAMIDE]: the EC50 worked out at 14000 nM and the maximal fold induction worked out at 3.1.
`Cc1ncsc1C(=O)NC1CCCc2ccccc2C1` (stereo not drawn) [Compound 109, 4-METHYL-THIAZOLE-5-CARBOXYLIC ACID (6,7,8,9-TETRAHYDRO-5H-BENZOCYCLOHEPTEN-6-YL)-AMIDE]: the EC50 was found to be 1800 nM and the maximal fold induction worked out at 2.8.
In the case of `Cc1cnc(C(=O)N[C@H]2CCCc3ccccc3C2)c(N)n1` [Compound 114, (S)-3-AMINO-5-METHYL-PYRAZINE-2-CARBOXYLIC ACID (6,7,8,9-TETRARYDRO-5H-BENZOCYCLOHEPTEN-6-YL)-AMIDE], the EC50 is 30 nM and the “TIR(max)” value came to 2.9.
Take `Cc1nc(N)c(C(=O)N[C@H]2CCCc3ccccc3C2)nc1C` [Compound 115, (S)-3-AMINO-5,6-DIMETHYL-PYRAZINE-2-CARBOXYLIC ACID (6,7,8,9-TETRAHYDRO-5H-BENZOCYCLOHEPTEN-6-YL)-AMIDE]: the EC50 amounted to 20 nM and the maximal fold induction was determined as 3.
Regarding `CNc1cncc(C(=O)N[C@H]2CCCc3ccccc3C2)n1` [Compound 116, (S)-6-METHYLAMINO-PYRAZINE-2-CARBOXYLIC ACID (6,7,8,9-TETRAHYDRO-5H-BENZOCYCLOHEPTEN-6-YL)-AMIDE], the EC50 worked out at 150 nM and the maximal fold induction came out at 2.9.
For `CN(C)c1ccc(C(=O)N[C@H]2CCCc3ccccc3C2)cn1` [Compound 117, (S)-6-DIMETHYLAMINO-N-(6,7,8,9-TETRAHYDRO-5H-BENZOCYCLOHEPTEN-6-YL)-NICOTINAMIDE], in that order: 136 nM and 3.
For `O=C(N[C@H]1CCCc2ccccc2C1)c1ccc(N2CCCC2)nc1` [Compound 118, (S)-6-PYRROLIDIN-1-YL-N-(6,7,8,9-TETRAHYDRO-5H-BENZOCYCLOHEPTEN-6-YL)-NICOTINAMIDE], the EC50 amounted to 140 nM and the maximal fold induction is 3.
For `Cc1ccc(C(=O)N[C@H]2CCCc3ccccc3C2)cc1NS(C)(=O)=O` [Compound 119, (S)-3-METHANESULFONYLAMINO-4-METHYL-N-(6,7,8,9-TETRAHYDRO-5H-BENZOCYCLOHEPTEN-6-YL)-BENZAMIDE], in that order: 230 nM and 3.
For the molecule `Cc1nc(C2CC2)sc1C(=O)N[C@H]1CCCc2ccccc2C1` [Compound 120, (S)-2-CYCLOPROPYL-4-METHYL-THIAZOLE-5-CARBOXYLIC ACID (6,7,8,9-TETRAHYDRO-5H-BENZOCYCLOHEPTEN-6-YL)-AMIDE], the EC50 was determined as 41 nM and the maximal fold induction was found to be 3.1.
Consider `Cc1cc(C(=O)N[C@H]2CCCc3ccccc3C2)n(C)n1` [Compound 122, (S)-2,5-DIMETHYL-2H-PYRAZOLE-3-CARBOXYLIC ACID (6,7,8,9-TETRAHYDRO-5H-BENZOCYCLOHEPTEN-6-YL)-AMIDE], for which the EC50 was determined as 15 nM and the maximal fold induction worked out at 2.85.
For `O=C(N[C@H]1CCCc2ccccc2C1)c1ccc(OCC(F)(F)F)cc1` [Compound 125, (S)—N-(6,7,8,9-TETRAHYDRO-5H-BENZOCYCLOHEPTEN-6-YL)-4-(2,2,2-TRIFLUORO-ETHOXY)-BENZAMIDE], the EC50 worked out at 40 nM and the maximal fold induction is 3.
On to `O=C(N[C@H]1CCCc2ccccc2C1)c1ccc2nc[nH]c2c1` [Compound 126, (S)-3H-BENZOIMIDAZOLE-5-CARBOXYLIC ACID (6,7,8,9-TETRAHYDRO-5H-BENZOCYCLOHEPTEN-6-YL)-AMIDE], for which the EC50 came out at 351 nM and the maximal fold induction came to 2.9.
With `CN1CC(=O)Nc2cc(C(=O)NC3CCCc4ccccc4C3)ccc21` (stereo not drawn) [Compound 127, 1-METHYL-3-OXO-1,2,3,4-TETRAHYDRO-QUINOXALINE-6-CARBOXYLIC ACID (6,7,8,9-TETRAHYDRO-5H-BENZOCYCLOHEPTEN-6-YL)-AMIDE], the EC50 came out at 4900 nM and the maximal fold induction was determined as 2.7.
Take `Nc1nc(Cl)ccc1C(=O)N[C@H]1CCCc2ccccc2C1` [Compound 128, (S)-2-AMINO-6-CHLORO-N-(6,7,8,9-TETRAHYDRO-5H-BENZOCYCLOHEPTEN-6-YL)-NICOTINAMIDE]: the EC50 turned out to be 2 nM and the maximal fold induction was determined as 3.1.
For `Cc1nc(N(C)C)sc1C(=O)N[C@H]1CCCc2ccccc2C1` [Compound 129, (S)-2-DIMETHYLAMINO-4-METHYL-THIAZOLE-5-CARBOXYLIC ACID (6,7,8,9-TETRAHYDRO-5H-BENZOCYCLOHEPTEN-6-YL)-AMIDE], in that order: 100 nM and 3.1.
With `COc1ccc(C(=O)N[C@H]2CCCc3ccccc3C2)cn1` [Compound 130, (S)-6-METHOXY-N-(6,7,8,9-TETRAHYDRO-5H-BENZOCYCLOHEPTEN-6-YL)-NICOTINAMIDE], the 50% effective concentration (EC50) is 110 nM and the maximal fold induction was 3.1.
As to `Cc1ccc(C(=O)N[C@H]2CCCc3ccccc3C2)cc1N(C)C` [Compound 131, (S)-3-DIMETHYLAMINO-4-METHYL-N-(6,7,8,9-TETRAHYDRO-5H-BENZOCYCLOHEPTEN-6-YL)-BENZAMIDE], the EC50 amounted to 440 nM and the maximal fold induction was determined as 3.1.
Taken in the same sequence, the figures for `O=C(N[C@H]1CCCc2ccccc2C1)c1cccc(N2CCCC2)c1` [Compound 132, (S)-3-PYRROLIDIN-1-YL-N-(6,7,8,9-TETRAHYDRO-5H-BENZOCYCLOHEPTEN-6-YL)-BENZAMIDE] were 50 nM and 3.1.
As for `COCc1ccc(C(=O)N[C@H]2CCCc3ccccc3C2)cn1` [Compound 133, (S)-6-METHOXYMETHYL-N-(6,7,8,9-TETRAHYDRO-5H-BENZOCYCLOHEPTEN-6-YL)-NICOTINAMIDE], the EC50 stood at 128 nM and the maximal fold induction stood at 3.1.
Taken in the same sequence, the figures for `O=C(NC1CCCc2ccccc2C1)c1cnc2c(c1)CCCC2` (stereo not drawn) [Compound 134, 5,6,7,8-TETRAHYDRO-QUINOLINE-3-CARBOXYLIC ACID (6,7,8,9-TETRAHYDRO-5H-BENZOCYCLOHEPTEN-6-YL)-AMIDE] were 3000 nM and 3.5.
